According to patent US20230257373A1, “QUORUM SENSING INHIBITORS AND METHODS OF USE” (priority 2020, published 2023):
Read-outs that look alike come from different tables or passages of the source.

Assays:
[1] = tested on: PluxC-gfp reporter in V. vulnificus; experiment: PluxC-gfp reporter in V. vulnificus strains; details: Vibrio vulnificus
[2] = tested on: PluxC-gfp reporter in V. parahaemolyticus; experiment: PluxC-gfp reporter in V. parahaemolyticus strains; details: Vibrio parahaemolyticus
[3] = tested on: PluxC-gfp reporter in V. campbellii; experiment: PluxC-gfp reporter in V. campbellii strains; details: Vibrio campbellii
[4] = tested on: PluxC-gfp reporter in V. coralliilyticus; experiment: PluxC-gfp reporter in V. coralliilyticus strains
V. campbellii LuxR [5] = biological target: T1, V. campbellii LuxR (Vibrio harveyi, UniProt P21308); experiment: E. coli dual-color bioassay (pKM699 LuxR, pJV064 reporter); format: cell-based; details: for Inhibition of LuxR in the E. coli bioassay (in words): GFP and mCherry reporters
T1 construct: expressed in transfected cells; host or cells: E. coli DH10B with pKM699 and reporter pJV064
T1 sequence (P21308 whole entry): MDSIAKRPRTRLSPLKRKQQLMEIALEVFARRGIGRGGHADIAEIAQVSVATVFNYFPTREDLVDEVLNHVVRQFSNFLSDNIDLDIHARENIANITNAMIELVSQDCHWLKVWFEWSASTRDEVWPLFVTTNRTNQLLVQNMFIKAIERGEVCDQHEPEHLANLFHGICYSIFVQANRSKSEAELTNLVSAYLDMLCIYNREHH
Text: Previously, we developed a bioassay that consists of a dual-color fluorescent reporter plasmid that reports both LuxR activities: the luxCDABE promoter is activated by LuxR and drives expression of gfp, and the VIBHAR_05222 promoter is repressed by LuxR and drives expression of mCherry (van Kessel et al., 2013b) (FIG. 2A). We used this reporter plasmid in an E. coli strain that also contains a plasmid expressing LuxR from its native promoter.
A bioassay was developed to monitor LuxR function that consists of a dual-color reporter plasmid (pJV064) that reports both activities: the luxCDABE promoter is activated by LuxR and drives expression of gfp, and the 05222 promoter is repressed by LuxR and drives expression of mCherry (van Kessel, Ulrich et al. 2013). This reporter plasmid was used in an E. coli strain that also contains a plasmid (pKM699) expressing LuxR from its native promoter. E. coli cultures containing these two plasmids were grown at 30° C. in LB medium with chloramphenicol (10 μg/ml) and tetracycline (10 μg/ml) to select for the two plasmids. Compounds were added to the cultures at a range of concentrations, and the cultures were incubated for 16 hours shaking at 30° C.
The dual-promoter fluorescence reporter assays were performed using E. coli strain DH10B containing two plasmids: 1) plasmid pJV064 containing the PluxC fused to GFP and P05222fused to mCherry to assess LuxR transcriptional regulation, and 2) plasmid pKM699 expressing V. campbellii luxR under control of its native promoter or empty vector pLAFR2.

Vibrio strains = experiment: luxCDABE reporter across five Vibrio species; details: each Vibrio strain except V. cholerae
V. campbellii LuxR [6] = biological target: T1, V. campbellii LuxR; experiment: qRT-PCR and western blots in wild-type V. campbellii; format: cell-based
Text: The Qstatin-treated regulon overlapped with the SmcR regulon by more than 50%, with similar gene expression fold-changes. […] This is important to note because LuxR and HapR proteins are known to autorepress their own expression. To test the effects of adding inhibitors to V. campbellii LuxR, we added 10A, 10B, and 10C to wild-type V. campbellii and used qRT-PCR and western blots to examine the effects on luxR transcript and protein levels. We also examined the transcript levels for luxC and 05222 genes that are directly activated or repressed by LuxR, respectively.
All PCR reactions were performed using Phusion HF polymerase (NEB). T4 polynucleotide kinase (T4 PNK) used in EMSAs and all other enzymes were purchased from NEB and used according to manufacturer's instructions. Site-directed mutagenesis for construction of plasmids expressing mutant proteins was carried out using the Agilent QuikChange II XL Site-Directed Mutagenesis Kit. All oligonucleotides were purchased from Integrated DNA Technologies (IDT).ALL plasmid constructs were confirmed by DNA sequencing (Eurofins). Cloning details for plasmids are available upon request. Western blot analysis was performed as previously described (van Kessel et al., 2013b), except that new anti-LuxR antibodies were generated through Cocalico against purified LuxR protein. In addition, the western blots were probed with anti-RpoB (Neoclone).
Then cells were induced with 50 μM IPTG and grown under the same conditions until cells reached an OD600 of approximately 1, at which 5 mL of cells were collected by centrifugation and frozen in liquid N2. RNA was extracted using a Trizol/chloroform extraction protocol previously described (Rutherford et al., 2011). Quantitative real-time PCR (qRT-PCR) was performed as previously described (Chaparian et al., 2016). Samples were normalized to the internal standard hfq gene. The ΔΔCT values were used to analyze data from three independent biological replicates. Symbols on graphs represent the mean values and error bars represent the standard deviations. All statistical analysis was performed with functions from GraphPad Prism version 8.

[7] = ATCC27562, read-out: Inhibition (IC50) of the PluxC-gfp reporter, Vvul ATCC 27562
[8] = read-out: Inhibition (IC50) of the PluxC-gfp reporter, Vvul CMPC6
[9] = read-out: Inhibition (IC50) of the PluxC-gfp reporter, Vvul YJ016
[10] = read-out: Inhibition (IC50) of the PluxC-gfp reporter, Vpara 12-297/B
[11] = read-out: Inhibition (IC50) of the PluxC-gfp reporter, Vpara D4
[12] = read-out: Inhibition (IC50) of the PluxC-gfp reporter, Vpara RIMD 2210633
[13] = ATCC25920, read-out: Inhibition (IC50) of the PluxC-gfp reporter, Vcamp ATCC 25920
[14] = read-out: Inhibition (IC50) of the PluxC-gfp reporter, Vcamp BB120
[15] = read-out: Inhibition (IC50) of the PluxC-gfp reporter, Vcamp HY01
[16] = read-out: Inhibition (IC50) of the PluxC-gfp reporter, Vcoral OCN 008
[17] = read-out: Inhibition (IC50) of the PluxC-gfp reporter, Vcoral OCN 014
[18] = read-out: IC50 in the bioassay (approximate)

Compound	IC50 [1, 7]	IC50 [1, 8]	IC50 [1, 9]	IC50 [2, 10]	IC50 [2, 11]	IC50 [2, 12]	IC50 [3, 13]	IC50 [3, 14]	IC50 [3, 15]	IC50 [4, 16]	IC50 [4, 17]	Effect in V. coralliilyticus OCN008 (in words) ([4]; OCN008)	IC50 (V. campbellii LuxR [5]; [18])	IC50 values lower than Qstatin (Vibrio strains)	luxC transcripts (V. campbellii LuxR [6]; qRT-PCR, to levels in a ΔluxR strain)	05222 transcripts (V. campbellii LuxR [6]; qRT-PCR, wild-type cultures)	LuxR protein level (V. campbellii LuxR [6]; western blot, wild-type V. campbellii)	Inhibition of LuxR in the E. coli bioassay (in words) (V. campbellii LuxR [5])	IC50 (V. campbellii LuxR [5]; Table 2, titration, 16 hours, read-out: Inhibition (IC50) of GFP production by LuxR in E. coli bioassay)
O=S(=O)(c1cccs1)n1cccn1 [Compound 1B, 1-(thiophen-2-ylsulfonyl)-1H-pyrazole]	3.4 µM	29.6 µM	6.5 µM	11.8 µM	18.9 µM	15.9 µM	12.8 µM	52.6 µM	23.2 µM	55.7 µM	101 µM	–	–	–	–	–	–	–	–
O=C(c1ccc(COc2ccc(Cl)cc2)o1)N1CCN(Cc2ccc3c(c2)OCO3)CC1 [P0053 I18, (4-(benzo[d][1,3]dioxol-5-ylmethyl)piperazin-1-yl)(5-((4-chlorophenoxy)methyl)furan-2-yl)methanone]	0.7 µM	4.9 µM	3.2 µM	8.1 µM	6.4 µM	2.8 µM	1.8 µM	2 µM	4.3 µM	18.9 µM	10.4 µM	–	–	–	–	–	–	–	–
O=S(=O)(c1ccccc1)n1cccn1 [Compound 1E, 1-(phenylsulfonyl)-1H-pyrazole]	2.7 µM	22 µM	4.6 µM	8.1 µM	12.7 µM	11 µM	8.4 µM	51.4 µM	14.8 µM	49.2 µM	66.2 µM	–	–	–	–	–	–	–	–
O=S(=O)(c1ccc(Br)s1)n1cccc1 [Compound 3A, 1-((5-bromothiophen-2-yl)sulfonyl)-1H-pyrrole]	0.7 µM	6.1 µM	1.3 µM	3 µM	2.8 µM	2.6 µM	–	15 µM	1.6 µM	23.1 µM	22.6 µM	–	–	–	–	–	–	–	–
O=S(=O)(c1cccs1)n1cccc1 [Compound 3B, 1-(thiophen-2-ylsulfonyl)-1H-pyrrole]	0.9 µM	5.9 µM	1.5 µM	4 µM	3.5 µM	2.5 µM	2 µM	18.9 µM	3.6 µM	39.2 µM	95.1 µM	most noticeable effect	–	–	–	–	–	–	–
Cc1ccn(S(=O)(=O)c2ccc(Br)s2)n1 [Compound 8A, 1-((5-bromothiophen-2-yl)sulfonyl)-3-methyl-1H-pyrazole]	0.4 µM	2.1 µM	0.5 µM	2.1 µM	2.4 µM	2 µM	0.7 µM	3.8 µM	1.2 µM	4.2 µM	9.6 µM	–	10 to 20 µM	–	–	–	–	–	–
O=S(=O)(c1ccc(Cl)s1)n1cccn1 [Compound 1C, 1-((5-chlorothiophen-2-yl)sulfonyl)-1H-pyrazole]	0.4 µM	2.3 µM	0.8 µM	1.6 µM	12.5 µM	1.7 µM	0.5 µM	3.3 µM	1 µM	9.1 µM	9.4 µM	–	–	–	–	–	–	–	–
O=S(=O)(c1ccc(Br)s1)n1ccc(-c2ccccc2)n1 [Compound 10A, 1-((5-bromothiophen-2-yl)sulfonyl)-3-phenyl-1H-pyrazole]	0.00144 µM	0.0339 µM	0.00584 µM	1.03 µM	0.87 µM	0.63 µM	0.05 µM	0.58 µM	0.4 µM	2.09 µM	2.01 µM	–	1 to 2 µM	~10 fold	significantly decreased	significantly increased	visible increase	most potent	–
Cc1ccn(S(=O)(=O)c2ccc(Cl)s2)n1 [Compound 8C, 1-((5-chlorothiophen-2-yl)sulfonyl)-3-methyl-1H-pyrazole]	0.7 µM	4.6 µM	1 µM	3.3 µM	4.5 µM	3.8 µM	1.5 µM	6.7 µM	2.7 µM	2.7 µM	8.4 µM	–	10 to 20 µM	–	–	–	–	–	–
FC(F)(F)C1CN(c2nc(-c3ccccc3)cs2)CCO1 (stereo not shown) [P2065 E16, 4-(4-phenylthiazol-2-yl)-2-(trifluoromethyl)morpholine]	–	–	–	–	–	–	–	–	–	–	–	–	–	–	–	–	–	only a minor inhibition	5.3 µM
O=S(=O)(c1ccc(Cl)s1)n1cccc1 [Compound 3C, 1-((5-chlorothiophen-2-yl)sulfonyl)-1H-pyrrole]	0.5 µM	–	–	–	–	2 µM	–	8.3 µM	–	1.3 µM	–	–	–	–	–	–	–	–	–
O=S(=O)(c1ccc(Br)s1)N1CCCC1 [P0074 H04, 1-((5-bromothiophen-2-yl)sulfonyl)pyrrolidine]	–	–	–	–	–	–	–	–	–	–	–	–	~35 µM	–	–	–	–	consistent inhibition	–
Cc1ccn(S(=O)(=O)c2cccs2)n1 [Compound 8B, 3-methyl-1-(thiophen-2-ylsulfonyl)-1H-pyrazole]	1.9 µM	11.5 µM	3 µM	6.7 µM	8.4 µM	7.3 µM	3.9 µM	32.4 µM	8.7 µM	26.1 µM	26.8 µM	–	–	–	–	–	–	does not show inhibition	–
